Measured values taken from PMC7343282, “Tissue Distribution of Several Series of Cationic Surfactants in Rainbow Trout (Oncorhynchus mykiss) Following Exposure via Water” (Environmental Science & Technology, 2020).

Experiments:
[1] = Tissue concentrations in rainbow trout after 7 d exposure via water (two mixtures); format: in vivo, Oncorhynchus mykiss; settings: rainbow trout (Oncorhynchus mykiss), in vivo
Method: (§1) The study was conducted with rainbow trout (Oncorhynchus mykiss) weighing between 98 and 165 g. The fish were purchased from Nordic trout Sweden AB and held in the aquaria facility prior to the experiment in February 2018. Ethical approval for the experiments was obtained from Stockholms djurförsöksetiska nämnd (decision 9967-2017). The experiments were conducted in 300 L fiberglass aquaria with a water renewal rate of 1.3 L min^–1 (MIX 1) and 1.45 L min^–1 (MIX 2). The water temperature was 10 °C and the pH 7.5. The water hardness was estimated to be 1.1 mM Ca^2+ based on information from the water supplier. The aquaria water was circulated through a filter of polyester wool at 800–1200 L h^–1 with an Eheim 2273 Pro 4+ pump. The outflow from the filter pump was placed above the water surface, providing for aeration. The lighting was dim and programmed on a 12 h light/12 h dark cycle. The fish were fed fish food pellets supplied by the fish farm at 1.0% of their body weight per day.
(§2) A solution of the test chemical mixture in methanol was infused continuously (3.5 and 3.8 μL min^–1 for MIX 1 and MIX 2, respectively) into the water inflow using a syringe pump. The intended concentrations of the chemicals in water ranged from 2.5 to 50 μg L^–1 (Table 1). They were selected with the help of modeled estimates of the BCF that were based on reported and extrapolated membrane water partition coefficients[7] and biotransformation rate constants predicted with quantitative structure activity relationships (QSARs)[24],[25] to parameterize the BIONIC model.[26] Based on these estimates, we selected an exposure concentration which would result in concentrations in fish that were clearly above the limit of quantification (LOQ) of the analytical method, while trying to keep the quantifiable exposure concentration as low as possible to minimize the risk of toxic effects and micelle formation (see comparison of intended concentrations with available toxicological data in Table S4).
(§3) The surface of the fish posterior of the gills was rinsed with 100% methanol to remove test chemical residues adsorbed to the outer surface of the skin and absorbed in the skin mucus. […] The fish were dissected and the liver, the kidney, the gills, and the remaining contents of the abdominal cavity were taken and weighed. Skin and muscle samples were prepared from the upper dorsal region on semi-frozen fish after the methanol rinse had removed the mucus. The main part of the subcutaneous fat tissue was included in the muscle samples rather than in the skin samples. All samples were stored frozen at −20 °C until further analysis.
(§4) For 6 fish from each aquarium and 3 control fish, samples of muscle, skin, liver, and gills were homogenized in a bullet blender (muscle and liver) (MiniG, SPEXsamplePrep) or in a cryo-mill (skin and gill) (Mixer mill cryomill, Retsch GmbH). A sub-sample of 0.5–1.2 g of the homogenate was extracted twice in methanol (4 mL, 50 °C, ultra-sound, 60 min), employing centrifugation at 4000 rpm for phase separation. Further information on the extraction efficiency of this method can be found in the Supporting Information (Table S5 and accompanying text). Isotope labeled standards of Q10 (D21), Q14 (D29), and P16 (D33) were added to a portion of the extract corresponding to 12–75 mg of the sample. The extract volume was adjusted to 3 mL with methanol and then cleaned up on a weak cationic exchange SPE column (WCX, 60 mg, 30 μm particle size, waters). Solvent elution was performed by gravity flow. The column was conditioned with 2 mL of methanol, followed by 2 mL of Milli-Q water adjusted to pH 7 with ammonium hydroxide to activate the ion exchange. The sample extract was loaded onto the column, and it was subsequently rinsed with 20 mL of methanol.

[2] = test system: rainbow trout (Oncorhynchus mykiss); assay: as above; format: in vivo
Method: as §1, §2, §3, §4

[3] = ref Timmer and Droge (2017); cited from earlier work
[4] = test system: rainbow trout (Oncorhynchus mykiss); assay: Surface area-normalized mucus-water and gill-water distribution coefficients; settings: for Gill-water distribution coefficient (DG-W): from average concentrations in gills and water, calculated gill surface; for Mucus-water distribution coefficient (DMuc-W): from average concentrations in mucus and water
Method: For each mixture, the syringe pump was started in an aquarium containing no fish. After 16 h, to allow the concentrations to stabilize, 12 rainbow trout were added. After 7 d of exposure, the fish in the exposure aquaria as well as several unexposed (control) fish were sacrificed. Following stunning, blood was collected with a heparinized syringe from the caudal vein into a 2 mL Eppendorf tube. The fish were weighed and photographed, and the length was measured. The outer surface area of the fish was estimated from the fish weight according to O’Shea et al.[27] [drawing 1] 1
The gill surface area was estimated from the fish weight according to the equation specific for O. mykiss from a report by Hughes,[28] taken from ref ([29]) [drawing 2] 2
Because the mass of extracted mucus was not determined, the concentrations in mucus were normalized to the estimated fish’s total surface area (eq 1) excluding the head, which was not rinsed.
Surface area-normalized gill–water distribution coefficients (DG–W) were calculated from the average concentrations measured in gills and water, and a calculated gill surface based on rainbow trout specific scaling factors (eq 2). […] Unlike the skin, the gills were not rinsed with methanol, so the gill samples included gill mucus.

[5] = test system: rainbow trout (Oncorhynchus mykiss); assay: Apparent bioconcentration factor at end of 7-day exposure; format: in vivo
Method: Apparent BCFs (BCFapp) at the end of the 7-day exposure were calculated by dividing the surfactant body burden (including mucus) by the fish mass, and dividing this by the average measured concentration in water samples taken during the exposure phase. The BCFapp values ranged from 0.1 to 1260 (Table S18). Given the short exposure period, it is possible that the fish in this study had not approached steady state, in particular with respect to the distribution between water and internal tissues and between water and skin, and that the steady-state BCFs are higher. […] We note that some improvements in the methodology would be helpful, particularly with respect to the stability of the aqueous exposure concentration of the longest chain surfactants. Working with mixtures of analogue cationic surfactants allowed for consistent evaluation of differences in accumulation trends due to structural features.

[6] = Table S2; cited from earlier work
[7] = Membrane-water partition/distribution coefficient; settings: extrapolated from data of Timmer and Droge (2017)
[8] = rainbow trout (Oncorhynchus mykiss), in vivo, 7 d
[9] = rainbow trout (Oncorhynchus mykiss), in vivo, 7 d, pH 7.5
[10] = end of 7-day exposure, body burden including mucus
[11] = mean of exposed fish, Table S13
[12] = wet weight, mean of six fish (RSD %), 7 d exposure, Q10, Q14 below LOQ

SMILES: CCCCCCCCCN [P9, Nonylamine]
- concentration at 7 d ([1]; pH 7.5, Concentration in gills): 1040 ng/g
- concentration at 7 d ([1]; pH 7.5, Concentration in skin): 70 ng/g
- Concentration in gills [2, 8]: 1200 (12) ng g^–1
- Concentration in liver [2, 8]: 1710 (40) ng g^–1
- Concentration in skin [2, 8]: 132 (36) ng g^–1
- Concentration in blood [2, 9]: 46 (29) ng g^–1
- Concentration in muscle [2, 9]: 27 (39) ng g^–1
- Concentration in skin, per surface area [2, 9]: 11.6 ng cm-2
- Log KMW,C (membrane-water partition coefficient of the charged form) [3]: 3.72
- Gill-water distribution coefficient (DG-W) [4]: 0.44 mLcm-2
- Mucus-water distribution coefficient (DMuc-W) [4]: 0.47 mL cm-2
- Apparent bioconcentration factor (BCFapp) [5, 10]: 3.3 L kg-1 wet weight
- pKa [6]: 10.5

SMILES: CCCCCCCCCCCCN [P12, Dodecylamine]
- concentration at 7 d ([1]; Concentration in skin): 4630 ng/g
- concentration at 7 d ([1]; pH 7.5, Concentration in blood): 558 ng/g
- concentration at 7 d ([1]; pH 7.5, Concentration in gills): 18500 ng/g
- concentration at 7 d ([1]; pH 7.5, Concentration in liver): 35600 ng/g
- concentration at 7 d ([1]; pH 7.5, Concentration in skin): 2720 ng/g
- Concentration in gills [2, 8]: 20 000 (10) ng g^–1
- Concentration in liver [2, 8]: 42 000 (15) ng g^–1
- Concentration in skin [2, 8]: 3900 (25) ng g^–1
- Concentration in blood [2, 9]: 770 (26) ng g^–1
- Concentration in muscle [2, 9]: 630 (28) ng g^–1
- Concentration in skin, per surface area [2, 9]: 310 ng cm-2
- Log KMW,C (membrane-water partition coefficient of the charged form) [3]: 5.58
- Gill-water distribution coefficient (DG-W) [4]: 28 mLcm-2
- Mucus-water distribution coefficient (DMuc-W) [4]: 16.3 mL cm-2
- Apparent bioconcentration factor (BCFapp) [5, 9]: 230 L kg-1 wet weight
- pKa [6]: 10.5

SMILES: CCCCCCCCCCCCCCCCN [P16, hexadecylamine]
- concentration at 7 d ([1]; Concentration in skin): 415 ng/g
- concentration at 7 d ([1]; pH 7.5, Concentration in blood): 119 ng/g
- concentration at 7 d ([1]; pH 7.5, Concentration in gills): 7960 ng/g
- concentration at 7 d ([1]; pH 7.5, Concentration in liver): 5450 ng/g
- concentration at 7 d ([1]; pH 7.5, Concentration in muscle): 90 ng/g
- concentration at 7 d ([1]; pH 7.5, Concentration in skin): 364 ng/g
- Concentration in gills [2, 8]: 8700 (15) ng g^–1
- Concentration in liver [2, 8]: 5500 (10) ng g^–1
- Concentration in skin [2, 8]: 420 (25) ng g^–1
- Concentration in blood [2, 9]: 130 (19) ng g^–1
- Concentration in muscle [2, 9]: 111 (22) ng g^–1
- Concentration in skin, per surface area [2, 9]: 30 ng cm-2
- Log KMW,C (membrane-water partition coefficient of the charged form), extrapolated [7]: 7.90
- pKa [6]: 10.5

SMILES: CCCCCCCCCN(C)C [T9, N,N-dimethylnonylamine]
- Concentration in blood ([2]; exposed fish #1): 305 ng/g
- Concentration in gills ([2]; exposed fish #1): 1126 ng/g
- Concentration in gills, surface area-normalized ([2]; exposed fish #1): 15.7 ng cm-2
- Concentration in liver ([2]; exposed fish #1): 3588 ng/g
- Concentration in mucus ([2]; exposed fish #1): 19 ng cm-2
- Concentration in muscle ([2]; exposed fish #1): 173 ng/g
- Concentration in skin, per surface area ([2]; exposed fish #1): 48 ng cm-2
- Concentration in blood ([2]; exposed fish #2): 334 ng/g
- Concentration in gills ([2]; exposed fish #2): 1320 ng/g
- Concentration in gills, surface area-normalized ([2]; exposed fish #2): 17.4 ng cm-2
- Concentration in liver ([2]; exposed fish #2): 2592 ng/g
- Concentration in mucus ([2]; exposed fish #2): 17 ng cm-2
- Concentration in muscle ([2]; exposed fish #2): 173 ng/g
- Concentration in skin, per surface area ([2]; exposed fish #2): 32 ng cm-2
- Concentration in blood ([2]; exposed fish #3): 475 ng/g
- Concentration in gills ([2]; exposed fish #3): 1432 ng/g
- Concentration in liver ([2]; exposed fish #3): 2863 ng/g
- Concentration in mucus ([2]; exposed fish #3): 15 ng cm-2
- Concentration in muscle ([2]; exposed fish #3): 200 ng/g
- Concentration in skin, per surface area ([2]; exposed fish #3): 28 ng cm-2
- Concentration in blood ([2]; exposed fish #4): 251 ng/g
- Concentration in gills ([2]; exposed fish #4): 1130 ng/g
- Concentration in gills, surface area-normalized ([2]; exposed fish #4): 17.5 ng cm-2
- Concentration in liver ([2]; exposed fish #4): 1593 ng/g
- Concentration in mucus ([2]; exposed fish #4): 18 ng cm-2
- Concentration in muscle ([2]; exposed fish #4): 146 ng/g
- Concentration in skin, per surface area ([2]; exposed fish #4): 32 ng cm-2
- Concentration in blood ([2]; exposed fish #5): 323 ng/g
- Concentration in gills ([2]; exposed fish #5): 1240 ng/g
- Concentration in gills, surface area-normalized ([2]; exposed fish #5): 17.6 ng cm-2
- Concentration in liver ([2]; exposed fish #5): 5463 ng/g
- Concentration in mucus ([2]; exposed fish #5): 12 ng cm-2
- Concentration in muscle ([2]; exposed fish #5): 158 ng/g
- Concentration in skin, per surface area ([2]; exposed fish #5): 28 ng cm-2
- Concentration in blood ([2]; exposed fish #6): 291 ng/g
- Concentration in gills ([2]; exposed fish #6): 869 ng/g
- Concentration in gills, surface area-normalized ([2]; exposed fish #6): 11.3 ng cm-2
- Concentration in liver ([2]; exposed fish #6): 7230 ng/g
- Concentration in mucus ([2]; exposed fish #6): 9 ng cm-2
- Concentration in muscle ([2]; exposed fish #6): 111 ng/g
- Concentration in skin, per surface area ([2]; exposed fish #6): 19 ng cm-2
- Concentration in blood ([2]; mean of exposed fish, Table S10): 330 ng/g
- Concentration in muscle ([2]; mean of exposed fish, Table S11): 160 ng/g
- Concentration in liver ([2]; mean of exposed fish, Table S12): 3887 ng/g
- Concentration in gills [2, 11]: 1186 ng/g
- Concentration in gills, surface area-normalized [2, 11]: 15.9 ng cm-2
- Concentration in skin, per surface area ([2]; mean of exposed fish, Table S14): 31 ng cm-2
- Concentration in mucus ([2]; mean of exposed fish, Table S15): 15 ng cm-2
- Concentration in mucus ([2]; methanol rinse normalized to fish surface area, mean of six fish (RSD %)): 15 (24) ng cm^–2
- Concentration in gills ([2]; wet weight, mean of fish (RSD %), 7 d exposure): 1190 (16) ng g^–1
- Concentration in blood ([2]; wet weight, mean of six fish (RSD % in brackets), 7 d exposure, Q10 below LOQ): 330 (23) ng g^–1
- Concentration in liver [2, 12]: 3900 (49) ng g^–1
- Concentration in muscle [2, 12]: 160 (19) ng g^–1
- Concentration in skin [2, 12]: 390 (40) ng g^–1
- Log KMW,C (membrane-water partition coefficient of the charged form) [3]: 3.07
- Gill-water distribution coefficient (DG-W) [4]: 0.30 mLcm-2
- Mucus-water distribution coefficient (DMuc-W) [4]: 0.29 mL cm-2
- Apparent bioconcentration factor (BCFapp) [5, 10]: 5.4 L kg-1 wet weight
- pKa [6]: 9.5
